From US12569512B2, “Heparan sulfate (HS) oligosaccharides effect in liver ischemia reperfusion injury” (The University of North Carolina at Chapel Hill, priority 2019, dated 2026)
pIC50: −log10 of the molar value.

What was measured:
liver IR injury in rats = settings: cited from earlier work
human FXa (Homo sapiens) [1] = system: T1, human FXa (Homo sapiens); settings: as previously demonstrated [15]; cited from earlier work
T1 construct: purchased Enzyme Research Laboratories (FXa); Cutter Biologics (antithrombin)
T1 sequence (P01008 33-464): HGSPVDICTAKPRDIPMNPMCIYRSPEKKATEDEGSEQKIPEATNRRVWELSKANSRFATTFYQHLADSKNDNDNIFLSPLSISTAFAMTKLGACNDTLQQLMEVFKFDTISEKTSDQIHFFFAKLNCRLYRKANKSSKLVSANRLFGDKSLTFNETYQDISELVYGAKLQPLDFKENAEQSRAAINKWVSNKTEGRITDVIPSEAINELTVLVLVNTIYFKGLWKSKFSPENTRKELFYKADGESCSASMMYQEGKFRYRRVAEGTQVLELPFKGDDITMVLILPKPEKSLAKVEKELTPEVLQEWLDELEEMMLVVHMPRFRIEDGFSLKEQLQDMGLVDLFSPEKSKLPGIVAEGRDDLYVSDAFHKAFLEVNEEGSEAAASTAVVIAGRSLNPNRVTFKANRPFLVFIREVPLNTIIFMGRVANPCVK

[2] = system: liver IR injury mouse model; test: Liver ischemia-reperfusion (IR) injury mouse model: plasma markers and histology; assay type: in vivo; settings: 6 h reperfusion, vs IR; for plasma ALT / hepatic necrotic area in ischemic lobe (H&E): 1 mg/kg SC 30 min before 60 min ischemia; for neutrophil infiltration into ischemic liver (immunohistochemistry): 1 mg/kg SC
Description: Liver ischemia-reperfusion (IR) surgery was performed by the Animal Surgery Core Laboratory of the McAllister Heart Institute, University of North Carolina Chapel Hill, NC. The mouse experiments were approved by the UNC Animal Care and Use Committees and complied with National Institutes of Health guidelines. Male C57BL/6J mice, approximately 8 weeks old, were used in the IR surgeries. Mice received a subcutaneous (SC) injection of 1 mg/kg oligosaccharide or the equivalent volume of saline 30 minutes prior to the surgical procedure. For the combination treatment of 12-mer-3+6-mer-AXa, equal concentration of each oligosaccharide was combined into a single solution. Under ketamine/xylazine anesthesia, an abdominal midline incision was made to expose the portal vein. A clamp was placed on the portal vein and bile duct to three major liver lobes to cause a 70% hepatic ischemia. Visible blanching of the ischemic liver lobes confirmed correct placement of the clamp. A temporary stitch closure of the muscle and skin over the clamp was used to prevent dehydration during the ischemia phase. Mice stayed on a heating pad and under anesthesia during the ischemia phase (60 minutes). The clamp was removed after 60 minutes and the ischemia liver lobes regained their red color as blood began to reperfusion the tissue, an indicator of correct reperfusion occurring. The incisions were closed in two layers with 5-0 silk sutures and the mice returned to their active state (no anesthesia used during the reperfusion phase). After 6 hours, the mice were re-anaesthetized, blood was drawn via cardiac puncture and ischemia liver lobes were harvested for histology (fixed in 10% formalin).
Plasma ALT was measured using the ALT Infinity reagent (Thermo Fisher) following the manufacturer's instructions. Plasma TNF-α was measured using Mouse TNF-α DuoSet Kit (R&D Systems) according to the manufacturer's instructions. Plasma HMGB1 levels were determined using HMGB1 ELISA Kit (Tecan US) according to the manufacturer's instructions. Plasma syndecan-1 levels were determined using Mouse Syndecan-1 ELISA (CellSciences) according to manufacturer's instructions. Plasms IL-6 levels were determined using Mouse IL-6 ELISA (R&D Systems).
Ischemia liver tissues were fixed in 10% neutral buffered formalin for 24 hours at room temperature, paraffin-embedded, and sectioned. Liver sections (4 μm) were stained with hematoxylin-eosin (H&E) or immunostained with monoclonal antibodies anti-neutrophil (Abcam, Ab 2557, NIMP-R14) followed by goat anti-rat or goat anti-rabbit biotinylated secondary antibodies (Abcam). Embedding, sectioning and H&E staining were performed at the Animal Histopathology and Laboratory Medicine Core Facility at UNC Chapel Hill. H&E analyses were performed by the Translational Pathology Laboratory Core Facility at UNC Chapel Hill using Aperio ImageScope Software (Leica Biosystems, Concord, Canada). IHC images were captured using an HD camera attached to a bright field microscope (Leica DM 1000 LED, Leica Microsystems Inc., IL, USA) and were processed using ImageJ. For neutrophil quantitation, five 100× images were randomly selected for each sample and the average neutrophils/field were reported.
1 mg/kg of 18-mer or equal volume of sterile saline was administered by subcutaneous injection 30 minutes prior to start of the ischemia phase. Ischemia to 70% of the liver was caused by clamping the portal vein and bile duct for 60 minutes. After the clamp was removed, the reperfusion phase last 6 hours before the animals were sacrificed for collection of liver tissue and blood. For surgical controls, a sham operation was performed such that the animal experienced the same anesthesia, abdominal midline incision, and suturing as the IR mice (FIG. 11A).

FXa (Homo sapiens) = system: T2, FXa (Homo sapiens); test: Ex vivo plasma FXa activity of mice after liver IR; assay type: in vivo, mouse; settings: 1 mg/kg SC 30 min before ischemia; plasma after 6 h reperfusion; vs IR
T2 construct: purchased Enzyme Research Laboratories (FXa); Cutter Biologics (antithrombin)
T2 sequence (P01008 33-464): as above
Description: (§1) Assays were based on a previously published method. Briefly, human FXa (Enzyme Research Laboratories) was diluted to 50 U ml^−1 with PBS. The chromogenic substrate S-2765 (Diapharma) was diluted to 1 mg ml^−1 in water. For in vitro studies, fondaparinux (available under the trade name ARIXTRA) and 12-mer oligosaccharides were dissolved in PBS at various concentrations (0-131 nM). 16 μl of sample was incubated with 60 μl of […] antithrombin (Cutter Biologics) for 2 min at room temperature. Next, 100 μl of FXa was added and incubated for 4 min at room temperature. 30 μl of S-2765 substrate was added and the absorbance of the reaction mixture was measured at 405 nm continuously for 5 min. PBS serves as a control sample. The maximum slope for each sample was convert to percent FXa activity by dividing by the maximum slope for the control sample.
For ex vivo studies, mouse plasma collected after the 6 hour reperfusion period and assayed the same as described above.
Liver ischemia-reperfusion (IR) surgery was performed by the Animal Surgery Core Laboratory of the McAllister Heart Institute, University of North Carolina Chapel Hill, NC. The mouse experiments were approved by the UNC Animal Care and Use Committees and complied with National Institutes of Health guidelines. Male C57BL/6J mice, approximately 8 weeks old, were used in the IR surgeries. […]

HMGB1 = target: T3, HMGB1 (Mus musculus, UniProt P63158); test: Affinity purification (pulldown) of HMGB1 from liver lysate with biotinylated oligosaccharides, Western analysis; assay type: binding; settings: biotinylated oligosaccharide 0.1 mM, Western blot
T3 construct: used to pull down endogenous HMGB1 from liver lysate; from tissue; host or cells: liver lysate
T3 sequence (P63158 1-215): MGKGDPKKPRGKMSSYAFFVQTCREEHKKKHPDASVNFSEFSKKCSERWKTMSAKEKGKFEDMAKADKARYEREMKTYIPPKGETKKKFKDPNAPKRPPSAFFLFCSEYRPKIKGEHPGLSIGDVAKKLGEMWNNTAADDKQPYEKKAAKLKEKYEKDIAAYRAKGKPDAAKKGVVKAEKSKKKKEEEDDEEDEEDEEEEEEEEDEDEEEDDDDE
Description: The oligosaccharides were converted to biotinylated versions using the same method as described in PCT International Patent Application Serial No. PCT/US2018/059152. Briefly, 12-mers and 6-mer-AXa with a pNP tag (5-10 mg) and 0.5 mg Pd/C were dissolved in 20 mM NaOAc, pH 5.0 in a total volume of 4 ml. Reaction mixture was vacuumed and refilled with H2 three times. The reaction was then incubated at room temperature for 4 h. After that, it was filtered to remove charcoal. The filtered solution was adjusted to pH 8.5 using 500 mM Na2HPO4. Succinimidyl 6-azidohexanoate (20 molar equivalent of starting oligosaccharides) was added and incubated at 37° C. overnight. Reaction was purified by DEAE-HPLC column to generate azido tagged oligosaccharides. PBS (pH7.4) buffer was bubbled with N2 for 5 min to prepare the sample solution of 0.1 M CuSO4, 0.1 M Tris(3-hydroxypropyl-triazolylmethyl)amine (THPTA)(Sigma), 0.15 M sodium ascorbate, 0.01 M azido tagged oligosaccharides and 0.02 M biotin-PEG4-alkyne (Sigma). The mixture of […] and 80 μl CuSO4 was vortexed, then 160 μl sodium ascorbate, 200 μl azido tagged oligomers and 200 μl biotin-PEG4-alkyne was added and bubbled with N2 for 2 min, then incubated at 37° C. overnight. The reaction was purified by DEAE-HPLC column to generate biotinylated products. The biotinylated 12-mers and 6-mer-AXa products were confirmed by ESI-MS.
Briefly, liver lysate was prepared by snap freezing tissue in liquid nitrogen at the time of sacrifice. The tissue was mechanically homogenized in buffer containing 200 mM MES, 500 mM phosphate, and 1 mM EDTA at pH 6 followed by three rounds of freeze thawing. The lysed sample were centrifuged at 10,000× g for 15 min at 4° C. Biotinylated HS oligosaccharides (final concentration 0.1 mM) were mixed with 20 μl of fresh liver lysate (˜0.6 mg) in 100 mM NaCl 20 mM HEPES pH 7.2 and incubated overnight at 4° C. The purification and biotinylated HS bound complex where achieved using avidin-Sepharose and increasing concentration of NaCl washes. […]

rat model = settings: elevated doses; cited from earlier work
human FXa (Homo sapiens) [3] = target: T1, human FXa (Homo sapiens); test: In vitro anti-FXa activity of oligosaccharides (chromogenic, with antithrombin); assay type: biochemical; settings: for anti-FXa activity (anticoagulant activity): 0-131 nM
Description: as §1

[4] = kidney IR model; cited from earlier work
MPO = MPO activity in ischemic liver lysate after liver IR; assay type: in vivo, mouse; settings: 1 mg/kg SC, 6 h reperfusion
Description: Liver ischemia-reperfusion (IR) surgery was performed by the Animal Surgery Core Laboratory of the McAllister Heart Institute, University of North Carolina Chapel Hill, NC. The mouse experiments were approved by the UNC Animal Care and Use Committees and complied with National Institutes of Health guidelines. Male C57BL/6J mice, approximately 8 weeks old, were used in the IR surgeries. Mice received a subcutaneous (SC) injection of 1 mg/kg oligosaccharide or the equivalent volume of saline 30 minutes prior to the surgical procedure. For the combination treatment of 12-mer-3+6-mer-AXa, equal concentration of each oligosaccharide was combined into a single solution. Under ketamine/xylazine anesthesia, an abdominal midline incision was made to expose the portal vein. […]
Ischemia liver lobe was mechanically homogenized in 50 mM CTAB 50 mM potassium phosphate pH 6 at a ratio of 100 μl buffer per 10 mg tissue. […] Total protein concentration was measured by Bradford assay. 10 μl of liver lysate was incubated with 80 μl of 0.75 mM H2O2 and 110 μl of TMB (TMB liquid reagent, ready-to-use, Sigma) for 10 minutes at 37° C. with gentle agitation. The reaction was stopped by addition of 2.5 M H2SO4 and read at 450 nm. Activity (U/g protein) was calculated as absorbance of sample minus the absorbance of the blank divided by incubation time. […]

## CC(=N)N1CC[C@H](Oc2ccc([C@H](Cc3ccc4ccc(C(=N)N)cc4c3)C(=O)O)cc2)C1 [DX9065a]
Liver IR injury in rats
  liver IR injury: no protection

## GlcNS6S-GlcA-GlcNS6S3S-IdoA2S-GlcNS6S-GlcA-pNP [6-mer-AXa]
Human FXa (Homo sapiens) [1]
  anticoagulant activity through inhibition of FXa: has anticoagulant activity through inhibition of FXa
[2]
  plasma ALT: no statistical difference in the concentration of ALT
FXa (Homo sapiens)
  plasma FXa activity: Anticoagulant levels are similar between both treatment groups
HMGB1
  HMGB1 pulldown from liver lysate: does not pull down HMGB1

## GlcNS6S-GlcA-GlcNS6S3S-IdoA2S-GlcNS6S-IdoA2S-GlcNS6S-IdoA2S-GlcNS6S-IdoA2S-GlcNS6S-GlcA-pNP [12-mer-1]
Rat model
  toxicity: no toxicity
Human FXa (Homo sapiens) [3]; with antithrombin, substrate S-2765
  pIC50: 7.20
[4]
  renal clearance: renal clearance impairment of 12-mer-1 was demonstrated
[2]
  hepatic necrotic area in ischemic lobe (H&E): decreased hepatic necrosis
  plasma ALT: significantly decreased plasma ALT
  neutrophil infiltration into ischemic liver (immunohistochemistry): decreased neutrophil infiltration
FXa (Homo sapiens)
  plasma FXa activity: significantly decreased FXa activity
HMGB1
  HMGB1 pulldown from liver lysate: successfully pull down HMGB1
MPO
  decrease of MPO activity compared to the IR group: 60%

## GlcNS6S-GlcA-GlcNS6S-GlcA-GlcNS6S-GlcA-GlcNS6S-GlcA-GlcNS6S-GlcA-GlcNS6S-GlcA-pNP [12-mer-4]
Human FXa (Homo sapiens) [3]
  anti-FXa activity (anticoagulant activity): did not display anti-FXa activity

## GlcNS6S-GlcA-GlcNS6S-IdoA2S-GlcNS6S-IdoA2S-GlcNS6S-IdoA2S-GlcNS6S-IdoA2S-GlcNS6S-GlcA-pNP [12-mer-3]
Human FXa (Homo sapiens) [3]
  anti-FXa activity (anticoagulant activity): did not display anti-FXa activity
[2]
  hepatic necrotic area in ischemic lobe (H&E): not 12-mer-3 decreased ALT and necrosis
  plasma ALT: not 12-mer-3 decreased ALT
  neutrophil infiltration into ischemic liver (immunohistochemistry): did not
HMGB1
  HMGB1 pulldown from liver lysate: successfully pull down HMGB1
MPO
  MPO activity: 96.00 U/g protein

## GlcNS-GlcA-GlcNS-IdoA2S-GlcNS-IdoA2S-GlcNS-IdoA2S-GlcNS-IdoA2S-GlcNS-GlcA-pNP [12-mer-2]
Human FXa (Homo sapiens) [3]
  anti-FXa activity (anticoagulant activity): did not display anti-FXa activity
